Assays:
[1] = xn = mol fraction of the nth substance listed; settings: 100.8 kPa, Liquid; for viscosity: Capillary tube (Ostwald / Ubbelohde) method
[2] = refractive index (Na D-line) (dimensionless); xn = mol fraction of the nth substance listed; settings: 100.8 kPa, Liquid, Standard Abbe refractometry

CC(C)OC(C)C [diisopropyl ether] + CC(C)CC(C)(C)C
Settings	mass density, 288.15 K [kg/m3]	mass density, 298.15 K [kg/m3]	mass density, 308.15 K [kg/m3]	refractive index, 288.15 K	refractive index, 298.15 K	refractive index, 308.15 K	viscosity, 288.15 K [mPa·s]	viscosity, 298.15 K [mPa·s]	viscosity, 308.15 K [mPa·s]
[1], x1 = 0.05	697.2	688.86	680.44	–	–	–	0.523	0.468	0.422
[1], x1 = 0.1	698.46	690.03	681.52	–	–	–	0.511	0.456	0.412
[1], x1 = 0.15	699.73	691.23	682.62	–	–	–	0.498	0.445	0.402
[1], x1 = 0.2	701.06	692.45	683.75	–	–	–	0.486	0.435	0.393
[1], x1 = 0.25	702.44	693.75	684.95	–	–	–	0.474	0.425	0.384
[1], x1 = 0.3	703.86	695.08	686.17	–	–	–	0.463	0.415	0.375
[1], x1 = 0.35	705.33	696.43	687.42	–	–	–	0.452	0.406	0.367
[1], x1 = 0.4	706.84	697.84	688.72	–	–	–	0.442	0.397	0.359
[1], x1 = 0.45	708.37	699.26	690.03	–	–	–	0.432	0.388	0.351
[1], x1 = 0.5	709.97	700.76	691.42	–	–	–	0.423	0.38	0.343
[1], x1 = 0.55	711.64	702.32	692.86	–	–	–	0.414	0.372	0.336
[1], x1 = 0.6	713.36	703.94	694.35	–	–	–	0.405	0.364	0.329
[1], x1 = 0.65	715.15	705.61	695.92	–	–	–	0.397	0.357	0.323
[1], x1 = 0.7	716.97	707.32	697.5	–	–	–	0.389	0.35	0.316
[1], x1 = 0.75	718.85	709.08	699.14	–	–	–	0.382	0.343	0.31
[1], x1 = 0.8	720.8	710.9	700.83	–	–	–	0.375	0.337	0.305
[1], x1 = 0.85	722.8	712.78	702.59	–	–	–	0.368	0.33	0.299
[1], x1 = 0.9	724.9	714.75	704.42	–	–	–	0.361	0.325	0.294
[1], x1 = 0.9499	727	716.73	706.28	–	–	–	0.354	0.319	0.288
[1], x1 = 1	729.09	718.7	708.12	–	–	–	0.348	0.313	0.283
[2], x1 = 0.05	–	–	–	1.39293	1.38786	1.38277	–	–	–
[2], x1 = 0.1	–	–	–	1.39183	1.38672	1.38159	–	–	–
[2], x1 = 0.15	–	–	–	1.39072	1.38557	1.38042	–	–	–
[2], x1 = 0.2	–	–	–	1.3896	1.38443	1.37924	–	–	–
[2], x1 = 0.25	–	–	–	1.38846	1.38326	1.37803	–	–	–
[2], x1 = 0.3	–	–	–	1.38733	1.38209	1.37682	–	–	–
[2], x1 = 0.35	–	–	–	1.38619	1.38092	1.37561	–	–	–
[2], x1 = 0.4	–	–	–	1.38504	1.37974	1.3744	–	–	–
[2], x1 = 0.45	–	–	–	1.3839	1.37856	1.37317	–	–	–
[2], x1 = 0.5	–	–	–	1.38274	1.37737	1.37195	–	–	–
[2], x1 = 0.55	–	–	–	1.38158	1.37618	1.37072	–	–	–
[2], x1 = 0.6	–	–	–	1.38042	1.37499	1.36949	–	–	–
[2], x1 = 0.65	–	–	–	1.37926	1.3738	1.36826	–	–	–
[2], x1 = 0.7	–	–	–	1.37809	1.37259	1.36703	–	–	–
[2], x1 = 0.75	–	–	–	1.37691	1.37138	1.36578	–	–	–
[2], x1 = 0.8	–	–	–	1.37573	1.37016	1.36452	–	–	–
[2], x1 = 0.85	–	–	–	1.37456	1.36896	1.36327	–	–	–
[2], x1 = 0.9	–	–	–	1.37337	1.36774	1.36201	–	–	–
[2], x1 = 0.9499	–	–	–	1.37217	1.3665	1.36073	–	–	–
[2], x1 = 1	–	–	–	1.37093	1.36524	1.35944	–	–	–

Source: the NIST ThermoML archive (doi:10.1021/je050367p)
